# Measured values published in US20100087534A1, “Use of a Photosensitizing Agent in the Treatment or Prevention of an Inflammation-Associated Disorder in the Gastrointestinal Tract of a Mammal” (priority 2005, published 2010).
# Columns and labels:
# [1] = system: TNF-α; experiment: Expression index of TNF-α mRNA in illuminated colon, quantitative real-time PCR; format: in vivo, BALB/c mice
# Description: (§1) The third portion was used for measuring the expression of the molecules involved in immune and inflammatory phenomenons in the colonic mucosa (cytokines, chemokines). For RNA extraction this portion was conserved in RNA-later solution (Ambion Inc. Austin, USA) until processing. RNA was extracted from the tissues using a Rneasy Mini kit (Qiagen, Hombrechtikon, Switzerland). RNA samples were submitted to a second or third DNAse treatment in order to get rid of all traces of genomic DNA. Quality of the RNA samples was tested on agarose gels and absence of genomic DNA was tested by PCR using primers specific for a house keeping gene, glyceraldehydes-3-phosphate-dehydrogenase (GAPDH). RNA preparations were then submitted to reverse transcription using the ThermoScript™ RT-PCR system (Invitrogen, Basel, Switzerland) using an Oligo-dT as primer. Quantification of reverse transcripted messenger RNA for GAPDH, the inducible nitric oxide synthetase (iNOS), interferon-gamma (IFN-γ), interleukin-1 receptor antagonist (IL1-Ra), tumor necrosis factor alpha (TNF-α), interleukin 6 (IL-6), tumor growth factor beta (TGF-13) and interleukin10 (IL-10) was performed by quantitative real-time PCR in a BioRad Real-time PCR iCycler using specific pairs of primers and the green fluorescence dye SYBR—Green®. GAPDH was used to normalize quantifications within each individual sample (normalization of the number of mRNA copies for the gene of interest/1 million mRNA copies of the GAPDH gene of the investigated mouse). Expression of each gene of interest was finally calculated as an expression index (normalized number of mRNA copies of each manipulated mice/normalized number of mRNA copies of the unmanipulated mice) and the results are given as mean values of the expression index (unmanipulated mean mice index=1). Furthermore one kidney and a part of the liver were collected for pathological analysis to exclude hepato- or nephrotoxicity.
# [2] = system: IL-1Ra; experiment: Expression index of IL-1Ra mRNA in illuminated colon, quantitative real-time PCR; format: in vivo, BALB/c mice
# Description: as §1
# [3] = system: IFN-γ; experiment: IFN-γ expression index in colon of transfer colitis SCID mice (FIG. 2); format: in vivo
# Method: FIG. 2 represents the expression indices of the proinflammatory markers IFN-γ and TNF-α in untransfered mice, disease control group and PDT group (15 mg/kg of δ-ALA, 10 J/cm^2).
# Typically, the expression index of each pro-inflammatory marker of interest is calculated (normalized number of mRNA copies of each manipulated mice/normalized number of mRNA copies of the unmanipulated mice). The results are given as mean values of the expression index (unmanipulated mean mice index=1). […]
# The third portion was used for measuring the expression of the molecules involved in immune and inflammatory phenomenons in the colonic mucosa (cytokines, chemokines). […] Quantification of reverse transcripted messenger RNA for GAPDH, the inducible nitric oxide synthetase (iNOS), interferon-gamma (IFN-γ), interleukin-1 receptor antagonist (IL1-Ra), tumor necrosis factor alpha (TNF-α), interleukin 6 (IL-6), tumor growth factor beta (TGF-13) and interleukin10 (IL-10) was performed by quantitative real-time PCR in a BioRad Real-time PCR iCycler using specific pairs of primers and the green fluorescence dye SYBR—Green®. GAPDH was used to normalize quantifications within each individual sample (normalization of the number of mRNA copies for the gene of interest/1 million mRNA copies of the GAPDH gene of the investigated mouse). […]
# [4] = system: SCID mice with TH1-mediated Crohn-like colitis after transfer of CD4+CD45RBhigh T-cells; experiment: Histological analysis of colon after low dose PDT in transfer colitis (Example 2); format: in vivo
# Method: Evolution of colitis in SCID mice was monitored every week by colonoscopic investigation after induction. Mice with moderately inflamed colons [endoscopic index of colitis severity (EICS) index 4-8] or marked inflamed colons (EICS 9-13) were randomly assigned to either a <<low dose>> PDT group or no treatment group (disease control group). Unmanipulated age-matched SCID mice served as negative controls.
# (§2) PDT was performed with a photosensitizing agent (δ-ALA) dose of 15 mg/kg, administered 3 hours before the illumination with the energy dose of 10 J/cm^2 per gastrointestinal tract tissue.
# The illumination time was 100 s, the wavelength 635 nm.
# Mice were monitored by colonoscopy at day 3 and weeks 1, 2, 3 and 4 post PDT treatment. In addition to parameters investigated in example 1, CD4 immunostaining and apoptosis detection were performed.
# [5] = system: CD4+ cells in the inflamed colonic mucosa; experiment: Annexin-V mediated detection of apoptosis in CD4+ cells of colonic mucosa; format: in vivo, SCID mice; settings: time zero reference 1.8±0.2%
# Method: as §2
# For Annexin-V mediated detection of apoptosis mice were sacrificed 4 or 20 hours after low dose PDT later. Untreated inflamed mice were also sacrificed and were considered as the time zero reference. In order to extract cells from the colonic mucosa, treated portions of the colons, or equivalent portions in untreated mice, were collected, cut into small pieces and individually incubated for 20 minutes at room temperature under constant agitation in a PBS solution containing 5 mM EDTA. […] Cells were then analyzed through a FACscan flowcytometer (Becton Dickinson), once in the absence of propidium iodide (PI) and once in the presence of PI in order to identify population of viable cells. The percentage of Annexin-V^+ cells within the CD4^+ population was finally calculated based on a forward and side scatter gated population consisting of viable cells (>98% of PI negative cells) and containing the most percentage of CD4^+ cells (>80%).
# [6] = high dose PDT: 50 J/cm^2, 60 mg δ-ALA, 74 h, unmanipulated mice index=1
# [7] = low dose PDT 15 mg/kg δ-ALA, 10 J/cm2
# [8] = low dose PDT 5J/cm2, 15 mg/kg δ-ALA
compound,measurement,setting,value
"NCC(=O)CCC(=O)O [δ-ALA, 5-aminolevulinic acid]",expression index TNF-α,[1]; [6],5.19±0.93
same,expression index TNF α,[1]; [7],1.16±0.21
same,expression index TNF α,[1]; [8],4.49±2.86
same,expression index IL-1Ra,[2]; [6],4.54±1.21
same,expression index IL-1Ra,[2]; [7],0.94±0.08
same,expression index IL-1Ra,[2]; [8],1.14±0.11
same,expression index IFN-γ after low dose PDT,"[3]; 15 mg/kg δ-ALA, 10 J/cm^2, versus disease control group (FIG. 2)",decreased significantly
same,decrease of the expression of pro-inflammatory marker IFN-γ,"[3]; 10 J/cm^2, 15 mg/kg δ-ALA, compared to ""colonoscopy"" mice, deduced from FIG. 2",73%
same,histology of illuminated portion of colon,"[4]; PDT-treated mice, illuminated portion",a normal mucosa with low cellular infiltration
same,histological score of inflammation,"[4]; marked inflamed mice, 3 days after PDT, DC mice 7.7±0.6, P=0.0250",4.6±0.8
same,percentage of Annexin V+ cells in the CD4+/PI- population,"[5]; 4 hours after low dose PDT, P=0.0043",3.0±0.3%
same,percentage of Annexin V+ cells in the CD4+/PI- population,"[5]; 20 hours after low dose PDT, P=0.0012",4.6±0.5%
